Measurements: patent US20240043427A1 (Gilead Sciences, Inc., priority 2020, published 2024)

Assays:
[1] = biological target: T1, CD73 (Homo sapiens (Human), UniProt P21589); format: biochemical; conditions: 1 mM NaH2PO4 in enzyme buffer, CD73 0.3 nM, AMP 15 uM
[2] = biological target: T1, CD73; experiment: MDA-MB-231 Cell Based CD73 Activity Assay (DMEM); conditions: MDA-MB-231-GFP cells, DMEM medium with 10% human plasma, 200 uM AMP

T1 sequence (P21589 27-574): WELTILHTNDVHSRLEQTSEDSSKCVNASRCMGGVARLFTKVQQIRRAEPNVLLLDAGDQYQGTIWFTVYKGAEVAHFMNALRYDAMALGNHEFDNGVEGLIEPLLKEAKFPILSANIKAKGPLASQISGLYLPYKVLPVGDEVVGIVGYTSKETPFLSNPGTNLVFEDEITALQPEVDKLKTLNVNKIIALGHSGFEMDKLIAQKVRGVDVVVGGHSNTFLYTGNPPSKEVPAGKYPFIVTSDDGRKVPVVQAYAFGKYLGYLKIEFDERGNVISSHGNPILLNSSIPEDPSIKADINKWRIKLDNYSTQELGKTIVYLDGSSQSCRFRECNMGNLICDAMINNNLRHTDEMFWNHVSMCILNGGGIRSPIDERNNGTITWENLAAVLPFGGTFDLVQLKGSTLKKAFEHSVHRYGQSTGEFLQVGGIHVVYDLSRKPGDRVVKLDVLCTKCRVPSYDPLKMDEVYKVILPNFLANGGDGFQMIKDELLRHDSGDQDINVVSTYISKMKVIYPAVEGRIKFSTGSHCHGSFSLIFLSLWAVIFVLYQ

IC50 [1] | EC50 [2] | Compound
40.4 nM | 254 nM | O=C(CC(F)(F)F)N1CCC12CCN(c1cc(-c3c[nH]c(=O)[nH]c3=O)nn3ccnc13)C2 (centres unmarked) [Example 655, 5-(8-(1-(3,3,3-trifluoropropanoyl)-1,6-diazaspiro[3.4]octan-6-yl)imidazo[1,2-b]pyridazin-6-yl)pyrimidine-2,4(1H,3H)-dione]
10.1 nM | 57 nM | CC(=O)N1CCC12CCN(c1cc(-c3c[nH]c(=O)[nH]c3=O)nn3ccnc13)C2 (centres unmarked) [Example 656, 5-(8-(1-acetyl-1,6-diazaspiro[3.4]octan-6-yl)imidazo[1,2-b]pyridazin-6-yl)pyrimidine-2,4(1H,3H)-dione]
81.3 nM | 227 nM | CC(C)C(=O)N1CCC12CCN(c1cc(-c3c[nH]c(=O)[nH]c3=O)nn3ccnc13)C2 (centres unmarked) [Example 657, 5-(8-(1-isobutyryl-1,6-diazaspiro[3.4]octan-6-yl)imidazo[1,2-b]pyridazin-6-yl)pyrimidine-2,4(1H,3H)-dione]
1.87 nM | 7.88 nM | O=C(CC1CN(c2cc(-c3c[nH]c(=O)[nH]c3=O)nn3ccnc23)CC1(F)F)NC1(C(F)(F)F)CC1 (centres unmarked) [Example 658, 2-(1-(6-(2,4-dioxo-1,2,3,4-tetrahydropyrimidin-5-yl)imidazo[1,2-b]pyridazin-8-yl)-4,4-difluoropyrrolidin-3-yl)-N-(1-(trifluoromethyl)cyclopropyl)acetamide]
6.05 nM | 33.6 nM | O=C(CC1CN(c2cc(-c3c[nH]c(=O)[nH]c3=O)nn3ccnc23)CC1(F)F)NC12CC(F)(C1)C2 (centres unmarked) [Example 660, 2-(1-(6-(2,4-dioxo-1,2,3,4-tetrahydropyrimidin-5-yl)imidazo[1,2-b]pyridazin-8-yl)-4,4-difluoropyrrolidin-3-yl)-N-(3-fluorobicyclo[1.1.1]pentan-1-yl)acetamide]
4.68 nM | 25.5 nM | O=C(CC1CN(c2cc(-c3c[nH]c(=O)[nH]c3=O)nn3ccnc23)CC1(F)F)NC12CC(C1)C2 (centres unmarked) [Example 661, N-(bicyclo[1.1.1]pentan-1-yl)-2-(1-(6-(2,4-dioxo-1,2,3,4-tetrahydropyrimidin-5-yl)imidazo[1,2-b]pyridazin-8-yl)-4,4-difluoropyrrolidin-3-yl)acetamide]
24.5 nM | 160 nM | CC(C)n1cc(CC2CCN(c3cc(-c4c[nH]c(=O)[nH]c4=O)nn4ccnc34)C2)nn1 (centres unmarked) [Example 663, 5-(8-(3-((1-isopropyl-1H-1,2,3-triazol-4-yl)methyl)pyrrolidin-1-yl)imidazo[1,2-b]pyridazin-6-yl)pyrimidine-2,4(1H,3H)-dione]
0.92 nM | 0.21 nM | O=C(NC1(C(F)(F)F)CC1)O[C@H]1CN(c2cc(-c3c[nH]c(=O)[nH]c3=O)nn3c(F)cnc23)CC1(F)F [Example 664, (S)-1-(6-(2,4-dioxo-1,2,3,4-tetrahydropyrimidin-5-yl)-3-fluoroimidazo[1,2-b]pyridazin-8-yl)-4,4-difluoropyrrolidin-3-yl (1-(trifluoromethyl)cyclopropyl)carbamate]

Compound | IC50 [1] | EC50 [2]
CC(C)NC(=O)CC1CN(c2cc(-c3c[nH]c(=O)[nH]c3=O)nn3ccnc23)CC1(F)F (centres unmarked) [Example 659, 2-(1-(6-(2,4-dioxo-1,2,3,4-tetrahydropyrimidin-5-yl)imidazo[1,2-b]pyridazin-8-yl)-4,4-difluoropyrrolidin-3-yl)-N-isopropylacetamide] | 3.98 nM | 38.1 nM
CC(C)NC(=O)C(F)(F)C1CCN(c2cc(-c3c[nH]c(=O)[nH]c3=O)nn3ccnc23)C1 (centres unmarked) [Example 662, 2-(1-(6-(2,4-dioxo-1,2,3,4-tetrahydropyrimidin-5-yl)imidazo[1,2-b]pyridazin-8-yl)pyrrolidin-3-yl)-2,2-difluoro-N-isopropylacetamide] | 19.2 nM | 88.6 nM
